Laboratory results as given in patent US4330529A, “Antibacterial composition” (Fujisawa Pharmaceutical Co., Ltd., priority 1979, dated 1982).
Read-outs that look alike come from different tables or passages of the source.

Legend:
Format in all cases: cell-based
[1] = system: Staphylococcus epidermidis 1601-1; experiment: MIC and FIC, Nutrient agar (Tests 2, 3); conditions: 16011, S. epidermidis 1601-1, 20 h
Description: (§1) After the incubation was carried out at 37° C. for 20 hours, MIC values were determined.

[2] = system: Klebsiella pneumoniae NCTC 418; experiment: MIC and FIC, Nutrient agar (Tests 2, 3); conditions: NCTC418, K. pneumoniae NCTC 418, 20 h
Description: as §1

[3] = system: Pseudomonas aeruginosa 1101-76; experiment: MIC and FIC, Nutrient agar (Test 3); conditions: Pseudomonas aeruginosa, 110176; P. aeruginosa 1101-76; 20 h; read-out: MIC
Proteus vulgaris 7 = experiment: MIC and FIC, Nutrient agar (Tests 7, 9); conditions: Proteus vulgaris; P. vulgaris 7; 18 h; read-out: MIC
[4] = system: Enterobacter cloacae 1401-4; experiment: MIC and FIC, Nutrient agar (Tests 2, 3); conditions: Enterobacter cloacae, 14014; E. cloacae 1401-4; 20 h; read-out: MIC
Proteus rettgeri 1434-3 = experiment: MIC and FIC, Nutrient agar (Test 3); conditions: Providencia rettgeri, 14343; P. rettgeri 1434-3; 20 h
Description: as §1
(§2) FIC values and FIC Index were calculated in substantially the same manner as described in Test 1.

Proteus morganii 1433-2 = experiment: MIC and FIC, Nutrient agar (Tests 2, 3); conditions: Morganella morganii, 14332; P. morganii 1433-2; 20 h
Description: as §1

[5] = system: Escherichia coli 1341-18R^+; experiment: MIC and FIC, Nutrient agar (Test 3); conditions: 20 h
[6] = system: Enterobacter aerogenes 1402-10; experiment: MIC and FIC, Nutrient agar (Tests 2, 3); conditions: Klebsiella aerogenes, 140210; E. aerogenes 1402-10; 20 h; read-out: MIC
Citrobacter freundii 35 = experiment: MIC and FIC, Nutrient agar (Tests 6, 7, 9)
[7] = system: Serratia marcescens 1421-4; experiment: MIC and FIC, Nutrient agar (Tests 2, 3)
[8] = system: Proteus mirabilis 1432-75; experiment: MIC and FIC, Nutrient agar (Tests 2, 3); conditions: Proteus mirabilis, 143275, 20 h
[9] = system: Salmonella typhimurium 1406; experiment: MIC and FIC, Nutrient agar (Tests 2, 3); conditions: Salmonella enterica, TYPHIMURIUM, 20 h
Staphylococcus aureus 3 = experiment: MIC and FIC, Nutrient agar (Tests 6, 7); conditions: Staphylococcus aureus; S. aureus 3; 18 h; read-out: MIC
Description: as §2

Enterobacter aerogenes 7 = experiment: MIC and FIC, Nutrient agar (Tests 6, 7, 9); conditions: Klebsiella aerogenes; E. aerogenes 7; 18 h; read-out: MIC
Description: as §2

Structure (SMILES) | MIC [1] [µg/mL] | MIC [2] [µg/mL] | MIC [3] [µg/mL] | MIC (Proteus vulgaris 7) [µg/mL] | MIC [4] [µg/mL] | MIC (Proteus rettgeri 1434-3) [µg/mL] | MIC (Proteus morganii 1433-2) [µg/mL] | MIC [5] [µg/mL] | MIC [6] [µg/mL] | MIC (Citrobacter freundii 35; Citrobacter freundii, C. freundii 35, 18 h, read-out: MIC) [µg/mL] | MIC ([7]; Serratia marcescens, 14214, S. marcescens 1421-4, agar, 20 h, read-out: MIC) [µg/mL] | MIC [8] [µg/mL] | MIC [9] [µg/mL] | MIC ([7]; Serratia marcescens, 14214, 20 h) [µg/mL] | MIC (Staphylococcus aureus 3) [µg/mL] | MIC (Enterobacter aerogenes 7) [µg/mL] | MIC (Citrobacter freundii 35; Citrobacter freundii, 35, 18 h) [µg/mL]
Cc1nnc(SCC2=C(C(=O)O)N3C(=O)[C@@H](NC(=O)Cn4cnnn4)[C@H]3SC2)s1 [B (Table 3), cefazolin] | 0.39 | 1.56 | ≥ 400 | 100 | ≥ 400 | 6.25 | 25 | 3.13 | 12.5 | 50 | 400 |  |  |  |  |  | 
CC1(C)S[C@@H]2[C@H](NC(=O)C(C(=O)O)c3ccsc3)C(=O)N2[C@H]1C(=O)O (some centres unmarked) [B (Table 4), ticarcillin] | 3.13 | 100 |  |  | 50 |  |  |  |  |  |  | 0.78 | 1.56 | 25 |  |  | 
NC[C@H]1O[C@H](O[C@H]2[C@H](O)[C@@H](O[C@H]3O[C@H](CO)[C@@H](O)[C@H](N)[C@H]3O)[C@H](N)C[C@@H]2N)[C@H](N)C[C@@H]1O [B (Table 9), Tobramycin] |  |  |  |  |  |  |  |  |  |  |  |  |  |  | 0.39 | 6.25 | 3.13
